Results on 16 molecules are retold here after patent US11274124B2, “Tubulysin analogues as anticancer agents and payloads for antibody-drug conjugates and methods of treatment therewith” (William Marsh Rice University, priority 2017, dated 2022).

Read-outs that look alike come from different tables or passages of the source. Bounds are passed on as bounds.

As a reminder, the IC50 is the concentration at which inhibition is half-maximal.

The subject of data set [1] is MES SA DX (MES SA cell line with marked multi-drug resistance). The data set can be described thus: In vitro cytotoxicity assay (CellTiter-Glo, 72 hours), MES SA DX. To be noted: for IC50: Homo sapiens, MES-SA, 72 h. Background: In ATP-based viability assays light output follows the ATP content of the culture.
Data set [2] has as its system MES SA, MES SA DX and HEK 293T cells. The data set can be described thus: In vitro cytotoxicity assay, structure-activity discussion over the cell lines tested. To be noted: refers to Tables 2 and 3.
The test system of data set [3] is MES SA (uterine sarcoma cell line). Nature of the data set: In vitro cytotoxicity assay (CellTiter-Glo, 72 hours), MES SA. In kind it is cell-based. To be noted: Homo sapiens, MES-SA.
Data set [4] relates to HEK 293T (human embryonic kidney cancer cell line). Nature of the data set: In vitro cytotoxicity assay (CellTiter-Glo, 72 hours), HEK 293T. The format is cell-based. To be noted: Homo sapiens, HEK-293T.
Where [5] appears, read: read-out: MES SA DX, IC50 Value in nM.
Setting [6] is: 72 h, read-out: MES SA, IC50 Value in nM.
[7] abbreviates: 72 h, read-out: HEK 293T, IC50 Value in nM.

Turning to `CCOC(=O)[C@@H](C)CC(Cc1ccccc1)NC(=O)c1csc([C@@H](CC(C(C)C)N(C)C(=O)[C@@H](NC(=O)[C@H]2C[C@H](O[Si](C)(C)C(C)(C)C)CCN2C)C(C)C)OC(C)=O)n1` (stereo in doubt) [Tb77, Ethyl (2S,4S)-4-[({2-[(1R,3S)-1-acetoxy-3-{[(2S)-2-({[(4R)-4-{[tert-butyl(dimethyl)silyl]oxy}-1-meth-ylpiperidin-2-yl]carbonyl}amino)-3-methylbutanoyl](methyl)amino}-4-methylpentyl]-1,3-thiazol-4-yl}carbonyl)amino]-2-methyl-5-phenylpentanoate], the IC50 in data set [1] (setting [5]) is above 2500 nM; in data set [3] (setting [6]) it was 848 nM; in data set [4] (setting [7]) it was above 400 nM. In data set [2], the “cytotoxicity potency (in words, structure-activity discussion)” value (“cytotoxicity potency” for short) was “insignificant or low biological activity”.

As to `CC[C@H](C)[C@H](NC(=O)[C@H]1CCCCN1C)C(=O)N(C)[C@H](CCc1nc(C(=O)N[C@@H](Cc2ccccc2)C[C@H](C)C(=O)OC)cs1)C(C)C` [PTb-D42], in data set [2], the “cytotoxicity potency” value was “significant reduction in potency”.

For the molecule `CC[C@H](C)[C@H](NC(=O)[C@H]1CCCCN1C)C(=O)N(C)[C@H](CCc1nc(C(=O)N[C@@H](Cc2ccccc2)C[C@H](C)C(=O)O)cs1)C(C)C` [PTb-D43, pretubulysin D, reference compound], the “cytotoxicity potency” value in data set [2] is listed as “significant reduction in potency”.

Take `CCCCN1CCCC[C@@H]1C(=O)N[C@H](C(=O)N(C)[C@H](CCc1nc(C(=O)N[C@@H](Cc2ccccc2)C[C@H](C)C(=O)OC)cs1)C(C)C)[C@@H](C)CC` [PTb-D47]: the IC50 in data set [1] (setting [5]), in data set [3] (setting [6]) and in data set [4] (setting [7]) was above 1000 nM in each case. Besides, in data set [2], the “cytotoxicity potency” value is on record as “insignificant or low biological activity”.

As to `CCCCN1CCCC[C@@H]1C(=O)N[C@H](C(=O)N(C)[C@H](CCc1nc(C(=O)N[C@@H](Cc2ccccc2)C[C@H](C)C(=O)OC)cs1)C(C)C)C(C)C` [PTb-D49], the IC50 is above 1000 nM in data set [1] (setting [5]); above 1000 nM in data set [3] (Table 2, 72 hours, CellTiter-Glo, read-out: MES SA, IC50 Value in nM); above 1000 nM in data set [4] (Table 2, 72 hours, CellTiter-Glo, read-out: HEK 293T, IC50 Value in nM). Besides, in data set [2], the “cytotoxicity potency” value is listed as “insignificant or low biological activity”.

As for `CC[C@H](C)[C@H](NC(=O)c1cccn1C)C(=O)N(C)[C@H](C[C@@H](OC(C)=O)c1nc(C(=O)N[C@@H](Cc2ccccc2)C[C@H](C)C(=O)OC)cs1)C(C)C` [Tb50], the IC50 in data set [1] (setting [5]), in data set [3] (setting [6]) and in data set [4] (setting [7]) was above 1000 nM in each case. In addition, the “cytotoxicity potency” value in data set [2] is “insignificant or low biological activity”.

With `CC[C@H](C)[C@H](NC(=O)c1nccn1C)C(=O)N(C)[C@H](C[C@@H](OC(C)=O)c1nc(C(=O)N[C@@H](Cc2ccccc2)C[C@H](C)C(=O)OC)cs1)C(C)C` [Tb51], the IC50 in data set [1] (setting [5]), in data set [3] (setting [6]) and in data set [4] (setting [7]) was above 1000 nM in each case. Moreover, the “cytotoxicity potency” value in data set [2] was “insignificant or low biological activity”.

As to `CC(=O)O[C@H](C[C@H](C(C)C)N(C)C(=O)[C@H](C)NC(=O)[C@H]1CCCN1C)c1nc(C(=O)N[C@@H](Cc2ccccc2)C[C@H](C)C(=O)O)cs1` [Tb92, (2S,4R)-4-[({2-[(1R,3R)-1-Acetoxy-4-methyl-3-{methyl[(2S)-2-({[(2R)-1-methylpyrrolidin-2-yl]car-bonyl}amino)propanoyl]amino}pentyl]-1,3-thiazol-4-yl}carbonyl)amino]-2-methyl-5-phenylpentanoic acid], the IC50 in data set [1] (setting [5]), in data set [3] (setting [6]) and in data set [4] (setting [7]) was above 1000 nM throughout.

`COC(=O)C12C3C4C1C1C2C3C41NC(=O)c1csc([C@@H](C[C@H](C(C)C)N(C)C(=O)[C@@H](NC(=O)[C@H]2CCCCN2C)C2CC2)OC(C)=O)n1` (stereo partly drawn) [Tb99, Methyl 4-[({2-[(1R,3R)-1-acetoxy-3-{[(2S)-2-cyclopropyl-2-({[(2R)-1-methylpiperidin-2-yl]carbonyl}-amino)acetyl](methyl)amino}-4-methylpentyl]-1,3-thiazol-4-yl}carbonyl)amino]cubane-1-carboxylate]: the IC50 in data set [1] (setting [5]), in data set [3] (setting [6]) and in data set [4] (setting [7]) was above 1000 nM throughout.

For the molecule `COC(=O)C12CC(NC(=O)c3csc([C@@H](C[C@H](C(C)C)N(C)C(=O)[C@@H](NC(=O)[C@H]4CCCCN4C)C4CC4)OC(C)=O)n3)(C1)C2` [Tb100, Methyl 3-{[(2-{1-acetoxy-3-[(cyclopropyl{[(1-methylpiperidin-2-yl)carbonyl]amino}acetyl)(methyl)-amino]-4-methylpentyl}-1,3-thiazol-4-yl)carbonyl]amino}bicyclo[1.1.1]pentane-1-carboxylate], the IC50 is above 1000 nM in data set [1] (setting [5]), 15.2 nM in data set [3] (setting [6]) and 16.5 nM in data set [4] (setting [7]).

Consider `COC(=O)CC12CC(NC(=O)c3csc([C@@H](C[C@H](C(C)C)N(C)C(=O)[C@@H](NC(=O)[C@H]4CCCCN4C)C(C)C)OC(C)=O)n3)(C1)C2` [Tb103, Methyl (3-{[(2-{1-acetoxy-4-methyl-3-[methyl(3-methyl-2-{[(1-methylpiperidin-2-yl)carbonyl]amino}-butanoyl)amino]pentyl}-1,3-thiazol-4-yl)carbonyl]amino}bicyclo[11.1.]pent-1-yl)acetate], for which the IC50 in data set [1] (setting [5]) is 22.6 nM; in data set [3] (setting [6]) it was 2.74 nM; in data set [4] (setting [7]) it was 1.79 nM.

For `CC(=O)O[C@H](C[C@H](C(C)C)N(C)C(=O)[C@@H](NC(=O)[C@H]1CCCCN1C)C(C)C)c1nc(C(=O)N[C@@H](Cc2ccccc2)CC2C(=O)OC(C)(C)OC2=O)cs1` [Tb114, 1-(4-{[1-(2,2-Dimethyl-4,6-dioxo-1,3-dioxan-5-yl)-3-phenylpropan-2-yl]carbamoyl}-1,3-thiazol-2-yl)-4-methyl-3-[methyl(3-methyl-2-{[(1-methylpiperidin-2-yl)carbonyl]amino}butanoyl)amino]-pentyl acetate], the IC50 in data set [1] (setting [5]) was above 400 nM; in data set [3] (setting [6]) it was 1.23 nM; in data set [4] (setting [7]) it was 0.524 nM.

On to `COC(=O)[C@H](C[C@H](Cc1ccccc1)NC(=O)c1csc([C@@H](C[C@H](C(C)C)N(C)C(=O)[C@@H](NC(=O)[C@H]2CCCCN2C)C(C)C)OC(C)=O)n1)N(C)C` [Tb117, Methyl (2S)-4-{[(2-{1-acetoxy-4-methyl-3-[methyl(3-methyl-2-{[(1-methylpiperidin-2-yl)carbonyl]-amino}butanoyl)amino]pentyl}-1,3-thiazol-4-yl)carbonyl]amino}-2-(dimethylamino)-5-phenylpentanoate], for which the IC50 in data set [1] (read-out: MES SA DX, IC50) was 4.63 nM; in data set [1] (setting [5]), 4.63 nM; in data set [3] (72 h, read-out: MES SA, IC50), 0.099 nM; in data set [3] (setting [6]), 0.099 nM; in data set [4] (72 h, read-out: HEK 293T, IC50), 0.059 nM; in data set [4] (setting [7]), 0.059 nM.

Consider `CCN[C@@H](C[C@H](Cc1ccccc1)NC(=O)c1csc([C@@H](C[C@H](C(C)C)N(C)C(=O)[C@@H](NC(=O)[C@H]2CCCCN2C)C(C)C)OC(C)=O)n1)C(=O)OC` [Tb118, Methyl (2S)-4-{[(2-{1-acetoxy-4-methyl-3-[methyl(3-methyl-2-{[(1-methylpiperidin-2-yl)carbonyl]-amino}butanoyl)amino]pentyl}-1,3-thiazol-4-yl)carbonyl]amino}-2-(ethylamino)-5-phenylpentanoate], for which the “cytotoxicities against the marked drug resistant cancer cell line MES SA DX (in words)” value in data set [1] is given as “relatively potent (low nanomolar)”. The IC50 stood at 5.6 nM in data set [1] (read-out: MES SA DX, IC50); 5.6 nM in data set [1] (setting [5]); 0.14 nM in data set [3] (72 h, read-out: MES SA, IC50); 0.14 nM in data set [3] (setting [6]); 0.015 nM in data set [4] (72 h, read-out: HEK 293T, IC50); 0.015 nM in data set [4] (setting [7]).

With `COC(=O)[C@@H](CO)C[C@H](Cc1ccccc1)NC(=O)c1csc([C@@H](C[C@H](C(C)C)N(C)C(=O)[C@@H](NC(=O)[C@H]2CCCCN2C)C(C)C)OC(C)=O)n1` [Tb119, Methyl (2R,4R)-4-{2-[(1R,3R)-1-acetoxy-3-{(S)—N,3-dimethyl-2-[(R)-1-methylpiperidine-2-carboxamido]butanamido}-4-methylpentyl]thiazole-4-carboxamido}-2-(hydroxymethyl)-5-phenylpentanoate], the IC50 in data set [1] (read-out: MES SA DX, IC50) was above 14 nM; in data set [1] (setting [5]), above 14 nM; in data set [3] (72 h, read-out: MES SA, IC50) it was 0.093 nM; in data set [3] (setting [6]), 0.093 nM; in data set [4] (72 h, read-out: HEK 293T, IC50) it was 0.041 nM; in data set [4] (setting [7]), 0.041 nM.

As to `COC(=O)[C@H](CO)C[C@H](Cc1ccccc1)NC(=O)c1csc([C@@H](C[C@H](C(C)C)N(C)C(=O)[C@@H](NC(=O)[C@H]2CCCCN2C)C(C)C)OC(C)=O)n1` [Tb120, Methyl (2S,4R)-4-{2-[(1R,3R)-1-acetoxy-3-{(S)—N,3-dimethyl-2-[(R)-1-methylpiperidine-2-carboxamido]butanamido}-4-methylpentyl]thiazole-4-carboxamido}-2-(hydroxymethyl)-5-phenylpentanoate], the IC50 is above 14 nM in data set [1] (read-out: MES SA DX, IC50); above 14 nM in data set [1] (setting [5]); 0.059 nM in data set [3] (72 h, read-out: MES SA, IC50); 0.059 nM in data set [3] (setting [6]); 0.039 nM in data set [4] (72 h, read-out: HEK 293T, IC50); 0.039 nM in data set [4] (setting [7]).
